Source: patent US10945980B2, “Treatment for myopia” (The University of Newcastle, priority 2016, dated 2021)

Legend:
Format in all cases: in vivo, guinea pig (Cavia porcellus)
[1] = test system: normal growth of guinea pig eyes; test: Intravitreal nωPLA on normal growth (animals without lenses); settings: 6 mM nωPLA right eye vs vehicle left eye, 3 days from P13, no lenses
Experimental: (§1) In this second experiment, thirty four guinea pigs were raised and measured as described in Example 1. To induce myopia, animals wore a −6D lens on one eye from P6-P13, which was then removed for 3 days to initiate recovery from myopia, exactly as described in Example 1, Group 3. During the recovery period, animals received daily intravitreal injections (10 μl into the eye which had worn the lens) of either 6 mM nωPLA (PLA, n=9) or vehicle (0.9% isotonic saline, pH 7.4, n=11) on postnatal days P13, P14, and P15. To study the effect of the drugs on normal growth, a further seven animals were raised for the same period without lenses, and from P13 received a vehicle injection into the left eye and a 6 mM nωPLA injection into the right eye for 3 days. The dosage level of 6 mM refers to the concentration of nωPLA in the syringe. (Considerably smaller doses would be experienced at the level of the retina). In all animals, refractive error and axial parameters were measured in both eyes before and after the recovery period, at P13 and P16. In lens-wearing animals, untreated fellow eyes served as matched controls and data is expressed as the relative difference between the lens-wearing eye and the fellow eye.

[2] = test system: recovery from myopia in guinea pigs; test: Intravitreal nωPLA during recovery from −6D lens-induced myopia
Source text: That is, if up-regulation of nNOS was causal in the myopic recovery response, injections of nωPLA would be expected to inhibit the ability of the myopic eye recover from myopia.
as §1

[3] = test system: normal eye growth in guinea pigs; test: Eye drops on normal growth and emmetropization (no lens wear); settings: eye drops twice daily 9-16 days of age
Experimental: Two experimental protocols were employed (see Table 4). In Experiment 1, young guinea pigs wore a −6D lens on one eye from 5-12 days of age. They were randomly divided within each litter into two groups of 10 animals each, and received either a drop of L-Arginine (100 mM, 1.7%) in Saline (pH 7.4) or Saline alone (0.9%, pH 7.4) twice per day in the eye wearing the lens (Table 4). Drops were administered at the beginning of their light cycle and again approximately 6 hrs later in the middle of their day cycle. Lenses were removed during the drop administration which occurred under dim red light or in darkness. A single large drop was bathed on the cornea for 3 min in the lens-wearing eye in hand held animals. A clean lens was then reintroduced onto the eye. In Experiment 2, 14 guinea pigs were given eye drops in the same manner as in Experiment 1, but in both eyes and without any lens-wear, to determine the effect of the eye drops on normal eye growth. Animals received one drop of either 1.7% L-arginine (n=7) or atropine (Minims Atropine Sulphate 1%, Bausch & Lomb, preservative free, n=7) in one eye and saline (0.9%) in the other eye twice per day from 9-16 days of age.
In Experiment 1, at the end of the lens-wearing period, at 12 days of age just before the morning lights came on, both eyes were cyclopleged (1% Cyclopentolate—to paralyse the focussing muscles of the eye to a resting state) and 1.25 hours later, refractive error (RE) was measured. Animals were then anaesthetised with gaseous anaesthetic (1.5% isoflurane in oxygen) and eye length measures were taken in both eyes with high frequency ultrasound as described in Example 1. Biometry measures were also taken in the same manner before the lens wear period at 5 days of age. [No refractive measures were done at 5 days of age as cycloplegia could have interfered with the drug or lens response]. In Experiment 2, refractive error and eye length using ultrasound were measured in the same manner at 17 days of age, 24 hours after the previous drop was administered.
After cycloplegia was induced, refractive error was measured in each eye using an Autorefractor (Nidek AR-20, Japan). The spherical equivalent was calculated as the average of the sphere plus half the cylinder as is normal in clinical practice. All reported refractive errors are the spherical equivalent. Next, ocular length was measured using high frequency ultrasound (20 MHz) as previously described (McFadden et al, 2004). At least 20 traces were recorded for each eye and distances were averaged for at least 10 of these recordings. Peaks from the recordings were selected for the back of the cornea, the crystalline lens, and the vitreous chamber, and the layers at the back of the eye: the retina, choroid, and sclera. Ocular length was defined as the summed measurement from the front of the cornea to the back of the sclera.
Differences between the two eyes were analysed by a 2-tailed T-tests. The mean of calculated differences between the two eyes is referred to as relative myopia or relative ocular length and the difference in the change in ocular length in the treated compared to the untreated eye as relative growth.

| Structure (SMILES) | elongation in animals without myopia [1] | relative myopia in animals without myopia [1] | difference between the eyes in refractive error after the three day recovery period ([2]; 6 mM nωPLA (in syringe) 10 μl intravitreal daily P13-P15, measured P16) | ocular length relative to the saline group after the recovery period ([2]; 6 mM nωPLA intravitreal daily P13-P15, measured P16) | ocular length on average ([3]; measured at 17 days, p=0.22 between groups) | mean refractive error, both eyes averaged ([3]; measured at 17 days, p=0.32 between groups) | effect on refractive error (drug eye vs saline eye) ([3]; no lens, 1.7% LA (p=0.69) or 1% Atropine (p=0.40)) | difference between the two eyes in ocular length (drug eye vs saline control eye) ([3]; LA p=0.39, ATR p=0.42) |
| --- | --- | --- | --- | --- | --- | --- | --- | --- |
| CCCN=C(N)NCCC[C@H](N)C(=O)O [nωPLA, N-w-propyl-L-arginine] | no influence | no influence | −5.4 D | had longer eyes | – | – | – | – |
| CN1[C@@H]2CC[C@H]1C[C@@H](OC(=O)C(CO)c1ccccc1)C2 (some centres unmarked) [Atropine] | – | – | – | – | 8.192 mm | +5.08 | no difference in mean refractive error between the two eyes | +20 μm |
